According to patent US20020137929A1, “1 - (3-heterocyclylphenyl) isothiourea, -isourea, -guanidine and -amidine herbicidal agents” (Intellectual Property Department, BASF Aktiengesellschaft, priority 1998, published 2002):

Columns and labels:
[1] = test system: ABUTH (Velvetleaf); test: Postemergence herbicidal evaluation; assay type: in vivo, Abutilon theophrasti; conditions: postemergence
Outline: (§1)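 Young plants, roughly two weeks from seeding, receive the active ingredient as a sprayed dispersion (acetone/water 50/50, 0.5% TWEEN 20) at 40 psi. Doses span about 0.0156 to 0.500 kg/ha. A visual score from 0 to 9 compares treated with control plants four to five weeks on.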

[2] = test system: AMBEL (Ragweed, Common); test: Postemergence herbicidal evaluation; assay type: in vivo, Ambrosia artemisifolia; conditions: postemergence
Outline: as §1

[3] = test system: CHEAL (Lambsquarters, Common); test: Postemergence herbicidal evaluation; assay type: in vivo, Chenopodium album; conditions: postemergence
Outline: as §1

[4] = test system: ECHCG (Barnyardgrass); test: Postemergence herbicidal evaluation; assay type: in vivo, Echinochloa crus-galli; conditions: postemergence
Outline: as §1

[5] = test system: GLXMAW (Soybean, Williams); test: Postemergence herbicidal evaluation; assay type: in vivo, Glycine max, (L.) Merr. cv Williams; conditions: postemergence
Outline: as §1

[6] = test system: ORYSAT (Rice, Tebonnet); test: Postemergence herbicidal evaluation; assay type: in vivo, Oryza sativa, (L.) Tebonnet; conditions: postemergence
Outline: as §1

[7] = test system: ZEAMX (Corn, Field); test: Postemergence herbicidal evaluation; assay type: in vivo, Zea mays; conditions: postemergence
Outline: as §1

[8] = test system: AMBEL (Ragweed, Common); test: Preemergence herbicidal evaluation; assay type: in vivo, Ambrosia artemisifolia; conditions: rated 4-5 weeks after treatment
Outline: (§2)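 Scores use a 0–9 visual scale covering stand, vigor, malformation, size and chlorosis relative to controls, rated four to five weeks after treatment. Before emergence, soil-planted seeds were sprayed with compound in aqueous acetone at roughly 0.0156–0.500 kg/ha and held in the greenhouse.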

[9] = test system: CASOB (Sicklepod); test: Preemergence herbicidal evaluation; assay type: in vivo, Cassia obtusifolia; conditions: rated 4-5 weeks after treatment
Outline: as §2

[10] = test system: CHEAL (Lambsquarters, Common); test: Preemergence herbicidal evaluation; assay type: in vivo, Chenopodium album; conditions: rated 4-5 weeks after treatment
Outline: as §2

[11] = test system: GALAP (Galium); test: Preemergence herbicidal evaluation; assay type: in vivo, Galium aparine; conditions: rated 4-5 weeks after treatment
Outline: as §2

[12] = test system: CYPSE (Flatsedge); test: Preemergence weed control under flooded paddy conditions; assay type: in vivo, Cyperus serotinus; conditions: rated 3-4 weeks after treatment
Outline: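 Ratings on a 0-9 visual scale cover stand, vigor, malformation, size, chlorosis and overall appearance relative to a control, taken three to four weeks post-treatment. Application was into flood water over freshly sown silt loam at roughly 0.0313 to 0.500 kg/ha.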

[13] = test system: CYPIR (Rice Flatsedge); test: Postemergence weed control under flooded paddy conditions; assay type: in vivo, Cyperus iria; conditions: postemergence weeds, 3-4 weeks after treatment
Outline: (§3)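 Flood-water application, about 0.0313–0.500 kg/ha a.i. in aqueous/acetone 50/50 v/v; water depth 1.5–3 cm throughout. Weeds 3–5 cm, rice 1.5–2.5 leaf. Greenhouse; 0–9 visual rating vs control at 3–4 wk.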

[14] = test system: CYPSE (Flatsedge); test: as above; assay type: in vivo, Cyperus serotinus; conditions: postemergence weeds, 3-4 weeks after treatment
Outline: as §3

CCOC(=O)CN1C(=O)CSC1=Nc1cc(-n2c(=O)cc(C(F)(F)F)n(C)c2=O)c(F)cc1Cl [Compound 8, Ethyl 2-{{2-chloro-5-[3,6-dihydro-3-methyl-2,6-dioxo-4-(trifluoromethyl)-1(2H)pyrimidinyl]-4-fluorophenyl}imino}-4-oxo-3-thiazolidineacetate]
ABUTH herbicidal rating ([1]; rate 0.0157 kg/ha): 9.0 | ABUTH herbicidal rating ([1]; rate 0.0313 kg/ha): 9.0 | ABUTH herbicidal rating ([1]; rate 0.0625 kg/ha): 9.0 | ABUTH herbicidal rating ([1]; rate 0.1250 kg/ha): 9.0 | AMBEL herbicidal rating ([2]; rate 0.0157 kg/ha): 9.0 | AMBEL herbicidal rating ([2]; rate 0.0313 kg/ha): 7.8 | AMBEL herbicidal rating ([2]; rate 0.0625 kg/ha): 8.3 | AMBEL herbicidal rating ([2]; rate 0.1250 kg/ha): 8.6 | CHEAL herbicidal rating ([3]; rate 0.0157 kg/ha): 5.0 | CHEAL herbicidal rating ([3]; rate 0.0313 kg/ha): 7.5 | CHEAL herbicidal rating ([3]; rate 0.0625 kg/ha): 8.4 | CHEAL herbicidal rating ([3]; rate 0.1250 kg/ha): 9.0 | ECHCG herbicidal rating ([4]; rate 0.0157 kg/ha): 3.0 | ECHCG herbicidal rating ([4]; rate 0.0313 kg/ha): 2.1 | ECHCG herbicidal rating ([4]; rate 0.0625 kg/ha): 5.3 | ECHCG herbicidal rating ([4]; rate 0.1250 kg/ha): 8.2 | GLXMAW herbicidal rating ([5]; rate 0.0157 kg/ha): 7.5 | GLXMAW herbicidal rating ([5]; rate 0.0313 kg/ha): 7.6 | GLXMAW herbicidal rating ([5]; rate 0.0625 kg/ha): 7.9 | GLXMAW herbicidal rating ([5]; rate 0.1250 kg/ha): 8.4 | ORYSAT herbicidal rating ([6]; rate 0.0157 kg/ha): 2.0 | ORYSAT herbicidal rating ([6]; rate 0.0313 kg/ha): 2.7 | ORYSAT herbicidal rating ([6]; rate 0.0625 kg/ha): 4.1 | ORYSAT herbicidal rating ([6]; rate 0.1250 kg/ha): 5.3 | ZEAMX herbicidal rating ([7]; rate 0.0157 kg/ha): 7.5 | ZEAMX herbicidal rating ([7]; rate 0.0313 kg/ha): 7.3 | ZEAMX herbicidal rating ([7]; rate 0.0625 kg/ha): 7.4 | ZEAMX herbicidal rating ([7]; rate 0.1250 kg/ha): 7.6 | AMBEL preemergence herbicidal rating ([8]; rate 0.0156 kg/ha): 1.6 | AMBEL preemergence herbicidal rating ([8]; rate 0.0313 kg/ha): 4.5 | AMBEL preemergence herbicidal rating ([8]; rate 0.0625 kg/ha): 5.7 | AMBEL preemergence herbicidal rating ([8]; rate 0.1250 kg/ha): 8.5 | AMBEL preemergence herbicidal rating ([8]; rate 0.2500 kg/ha): 8.9 | AMBEL preemergence herbicidal rating ([8]; rate 0.5000 kg/ha): 9.0 | CASOB preemergence herbicidal rating ([9]; rate 0.0156 kg/ha): 0.0 | CASOB preemergence herbicidal rating ([9]; rate 0.0313 kg/ha): 0.1 | CASOB preemergence herbicidal rating ([9]; rate 0.0625 kg/ha): 1.2 | CASOB preemergence herbicidal rating ([9]; rate 0.1250 kg/ha): 1.7 | CASOB preemergence herbicidal rating ([9]; rate 0.2500 kg/ha): 3.3 | CASOB preemergence herbicidal rating ([9]; rate 0.5000 kg/ha): 3.8 | CHEAL preemergence herbicidal rating ([10]; rate 0.0156 kg/ha): 9.0 | CHEAL preemergence herbicidal rating ([10]; rate 0.0313 kg/ha): 9.0 | CHEAL preemergence herbicidal rating ([10]; rate 0.0625 kg/ha): 9.0 | CHEAL preemergence herbicidal rating ([10]; rate 0.1250 kg/ha): 9.0 | CHEAL preemergence herbicidal rating ([10]; rate 0.2500 kg/ha): 9.0 | CHEAL preemergence herbicidal rating ([10]; rate 0.5000 kg/ha): 9.0 | GALAP preemergence herbicidal rating ([11]; rate 0.0156 kg/ha): 0.0 | GALAP preemergence herbicidal rating ([11]; rate 0.0313 kg/ha): 1.3 | GALAP preemergence herbicidal rating ([11]; rate 0.0625 kg/ha): 5.5 | GALAP preemergence herbicidal rating ([11]; rate 0.1250 kg/ha): 7.5 | GALAP preemergence herbicidal rating ([11]; rate 0.2500 kg/ha): 9.0 | GALAP preemergence herbicidal rating ([11]; rate 0.5000 kg/ha): 9.0 | Herbicidal rating CYPSE ([12]; 0.0313 kg/ha): 0.0 | Herbicidal rating CYPSE ([12]; 0.0625 kg/ha): 0.0 | Herbicidal rating CYPSE ([12]; 0.1250 kg/ha): 0.0 | Herbicidal rating CYPSE ([12]; 0.2500 kg/ha): 0.0 | Herbicidal rating CYPIR ([13]; rate 0.0313 kg/ha): 0.0 | Herbicidal rating CYPIR ([13]; rate 0.0625 kg/ha): 0.0 | Herbicidal rating CYPIR ([13]; rate 0.1250 kg/ha): 0.0 | Herbicidal rating CYPIR ([13]; rate 0.2500 kg/ha): 4.0 | Herbicidal rating CYPSE ([14]; rate 0.0313 kg/ha): 0.0 | Herbicidal rating CYPSE ([14]; rate 0.0625 kg/ha): 0.0 | Herbicidal rating CYPSE ([14]; rate 0.1250 kg/ha): 0.0 | Herbicidal rating CYPSE ([14]; rate 0.2500 kg/ha): 0.0
